The source of these data is US9624215B2, “Amine derivative or salt thereof” (TOYAMA CHEMICAL CO., LTD., priority 2012, dated 2017).

A value given as a limit tells only on which side of the number the result lay.

This experiment relates to normal human neonatal foreskin epidermal keratinocytes (NHEK-F). Nature of the experiment: Cell proliferation inhibition test. Type of experiment: cell-based. The conditions noted are these: Keratinocyte, 72 h, NHEK-F cells, three days incubation, ATPlite or CellTiterGlo, read-out: IC50 (concentration of the compound at which the cell count is reduced by 50%). The procedure:
2×10^3 normal human neonatal foreskin epidermal keratinocytes (NHEK-F) (Kurabo, KK-4009) were suspended in 100 μL of Humedia-EG2 (Kurabo, KK-2150S) medium, plated in a 96-well plate and incubated overnight. The test compound was added on the following day and the cells were incubated for further three days. The cell count was determined using ATPlite (PerkinElmer, 6016739) or CellTiterGlo (Promega, G7573).
The inhibition rate was calculated from the following formula to determine the concentration of the compound at which the cell count is reduced by 50% (IC50). Inhibition rate (%)=100−(cell count in the presence of test compound/cell count in the absence of test compound)×100
(ATP-based viability assays read luminescence as a measure of living cells.)
In the case of `O=C(O)c1cc(C2CC2)cnc1Nc1cccc2c(-c3ccccc3)ccnc12` [Example 187, 5-cyclopropyl-2-((4-phenylquinolin-8-yl)amino)nicotinic acid], the IC50 was at most 10 nM.
Take `Cn1ccc2cc(Nc3ncc(C4CC4)cc3C(=O)O)cc(-c3ccc(-c4ccccc4)cc3)c21` [Example 191, 2-((7-([1,1′-biphenyl]-4-yl)-1-methyl-1H-indol-5-yl)amino)-5-cyclopropylnicotinic acid]: the IC50 was at most 10 nM.
To `O=C(O)c1cc(C2CC2)ccc1Nc1ccc2c(ccn2C(=O)c2ccc(Cl)cc2)c1` [Example 204, 2-((1-(4-chlorobenzoyl)-1H-indol-5-yl)amino)-5-cyclopropylbenzoic acid] belongs 10 to 100 nM.
Regarding `O=C(O)c1nc(C2CC2)ccc1Nc1ccc2c(ccn2Cc2ccccc2)c1` [Example 210, 3-((1-benzyl-1H-indol-5-yl)amino)-6-cyclopropylpicolinic acid], the IC50 was in the range of 10 to 100 nM.
To `O=C(O)c1cc(C2CC2)cnc1Nc1ccc2cc(-c3ccccc3)ccc2c1` [Example 218, 5-cyclopropyl-2-((6-phenylnaphthalen-2-yl)amino)nicotinic acid] belongs 10 to 100 nM; to `O=C(O)c1cc(C2CC2)cnc1Nc1cc(-c2ccccc2)c2[nH]ccc2c1` [Example 227, 5-cyclopropyl-2-((7-phenyl-1H-indol-5-yl)amino)nicotinic acid], 10 to 100 nM; to `O=C(O)c1cc(Cl)ncc1Nc1ccc2c(ccn2Cc2ccccc2)c1` [Example 229, 5-((1-benzyl-1H-indol-5-yl)amino)-2-chloroisonicotinic acid], 10 to 100 nM.
The figure for `O=C(O)c1cc(C2CC2)cnc1Nc1ccc2c(ccn2-c2cccc(F)c2)c1` [Example 231, 5-cyclopropyl-2-((1-(3-fluorophenyl)-1H-indol-5-yl)amino)nicotinic acid] is at most 10 nM; for `O=C(O)c1cc(Cl)ccc1Nc1ccc2c(ccn2Cc2cccc(OCc3ccc4ccccc4n3)c2)c1` [Example 249, 5-chloro-2-((1-(3-(quinolin-2-ylmethoxy)benzyl)-1H-indol-5-yl)amino)benzoic acid] it is at most 10 nM.
Turning to `O=C(O)c1cc(Cl)ccc1Nc1ccc2c(ccn2Cc2ccc3ccccc3n2)c1` [Example 251, 5-chloro-2-((1-(quinolin-2-ylmethyl)-1H-indol-5-yl)amino)benzoic acid], the IC50 lay in the range of 10 to 100 nM.
`O=C(O)c1cc(Cl)ccc1Nc1ccc2c(ccn2CC2CCCCC2)c1` [Example 257, 5-chloro-2-((1-(cyclohexylmethyl)-1H-indol-5-yl)amino)benzoic acid]: the IC50 was at most 10 nM.
To `O=C(O)c1cc(Cl)ccc1Nc1ccc2c(ccn2-c2cscn2)c1` [Example 271, 5-chloro-2-((1-(thiazol-4-yl)-1H-indol-5-yl)amino)benzoic acid] belongs 10 to 100 nM; to `O=C(O)c1cc(Cl)ccc1Nc1ccc2c(ccn2Cc2cccc(OCCN3CCOCC3)c2)c1` [Example 296, 5-chloro-2-((1-(3-(2-morpholinoethoxyl)benzyl)-1H-indol-5-yl)amino)benzoic acid], 10 to 100 nM; to `O=C(O)c1cc(Cl)ccc1Nc1ccc2c(ccn2Cc2cscn2)c1` [Example 302, 5-chloro-2-((1-(thiazol-4-ylmethyl)-1H-indol-5-yl)amino)benzoic acid], 10 to 100 nM.
The figure for `O=C(O)c1cc(Cl)ccc1Nc1ccc2c(ccn2-c2ccccn2)c1` [Example 311, 5-chloro-2-((1-(pyridin-2-yl)-1H-indol-5-yl)amino)benzoic acid] is at most 10 nM; for `O=C(O)c1cc(Cl)ccc1Nc1ccc2c(ccn2-c2cnccn2)c1` [Example 313, 5-chloro-2-((1-(pyrazin-2-yl)-1H-indol-5-yl)amino)benzoic acid] it is 100 to 1000 nM; for `O=C(O)c1cc(Cl)ccc1Nc1ccc2c(ccn2-c2ccncc2)c1` [Example 315, 5-chloro-2-((1-(pyridin-4-yl)-1H-indol-5-yl)amino)benzoic acid] it is 10 to 100 nM.
To `O=C(O)c1cc(Cl)ccc1Nc1ccc2c(ccn2-c2cnc3ccccc3c2)c1` [Example 317, 5-chloro-2-((1-(quinolin-3-yl)-1H-indol-5-yl)amino)benzoic acid] belongs at most 10 nM.
Consider `CSc1nccc(-n2ccc3cc(Nc4ccc(Cl)cc4C(=O)O)ccc32)n1` [Example 319, 5-chloro-2-((1-(2-(methylthio)pyrimidin-4-yl)-1H-indol-5-yl)amino)benzoic acid], for which the IC50 lay in the range of 10 to 100 nM.
To `O=C(O)c1cc(Cl)ccc1Nc1ccc2c(ccn2Cc2ccccn2)c1` [Example 341, 5-chloro-2-((1-(pyridin-2-ylmethyl)-1H-indol-5-yl)amino)benzoic acid] belongs 10 to 100 nM; to `COc1ccc(Cn2ccc3cc(Nc4ccc(Cl)cc4C(=O)O)ccc32)cc1` [Example 347, 5-chloro-2-((1-(4-methoxybenzyl)-1H-indol-5-yl)amino)benzoic acid], 10 to 100 nM; to `O=C(O)c1cc(Cl)ccc1Nc1ccc2c(ccn2Cc2cccnc2)c1` [Example 349, 5-chloro-2-((1-(pyridin-3-ylmethyl)-1H-indol-5-yl)amino)benzoic acid], 100 to 1000 nM.
Turning to `O=C(O)c1cc(-c2ccccc2)ccc1Nc1ccc2c(ccn2Cc2ccccc2)c1` [Example 359, 4-((1-Benzyl-1H-indol-5-yl)amino)-[1,1′-biphenyl]-3-carboxylic acid], the IC50 fell in the range of 10 to 100 nM.
To `O=C(O)c1cc(C2CC2)cnc1Nc1cccc2c(-c3ccccc3)cccc12` [Example 367, 5-cyclopropyl-2-((5-phenylnaphthalen-1-yl)amino)nicotinic acid] belongs at most 10 nM.
Regarding `O=C(O)c1cc(C2CC2)cnc1Nc1cccc2c(=O)n(-c3ccccc3)cnc12` [Example 369, 5-cyclopropyl-2-((4-oxo-3-phenyl-3,4-dihydroquinazolin-8-yl)amino)nicotinic acid], the IC50 was in the range of 100 to 1000 nM.
Regarding `O=C(O)c1cc(C2CC2)cnc1Nc1cccc2ccccc12` [Example 371, 5-cyclopropyl-2-(naphthalen-1-ylamino)nicotinic acid], the IC50 lay in the range of 100 to 1000 nM.
To `O=C(O)c1cc(C2CC2)ccc1Nc1ccc2[nH]cc(-c3ccccc3)c2c1` [Example 377, 5-cyclopropyl-2-((3-phenyl-1H-indol-5-yl)amino)benzoic acid] belongs 10 to 100 nM; to `CC(C)c1cnc(Nc2ccc3c(ccn3Cc3ccccc3)c2)c(C(=O)O)c1` [Example 379, 2-((1-benzyl-1H-indol-5-yl)amino)-5-isopropylnicotinic acid], 10 to 100 nM; to `CCc1cnc(Nc2ccc3c(ccn3Cc3ccccc3)c2)c(C(=O)O)c1` [Example 381, 2-((1-benzyl-1H-indol-5-yl)amino)-5-ethylnicotinic acid], 10 to 100 nM.
To `O=C(O)c1cc(C2CC2)cnc1Nc1ccc2c(c1)cc(-c1ccccc1)n2Cc1ccccc1` [Example 387, 2-((1-benzyl-2-phenyl-1H-indol-5-yl)amino)-5-cyclopropylnicotinic acid] belongs 10 to 100 nM; to `CC(C)(C)c1cc2cc(Nc3ncc(C4CC4)cc3C(=O)O)ccc2[nH]1` [Example 389, 2-((2-(tert-butyl)-1H-indol-5-yl)amino)-5-cyclopropylnicotinic acid], 100 to 1000 nM; to `Cc1cc2cc(Nc3ncc(C4CC4)cc3C(=O)O)ccc2n1C` [Example 391, 5-cyclopropyl-2-((1,2-dimethyl-1H-indol-5-yl)amino)nicotinic acid], 100 to 1000 nM.
In the case of `Cn1cc(C2CC2)c2cc(Nc3ncc(C4CC4)cc3C(=O)O)ccc21` [Example 393, 5-cyclopropyl-2-((3-cyclopropyl-1-methyl-1H-indol-5-yl)amino)nicotinic acid], the IC50 lay within 10 to 100 nM.
Take `O=C(O)c1cc(C2CC2)cnc1Nc1ccc2c(cnn2Cc2ccccc2)c1` [Example 395, 2-((1-benzyl-1H-indazol-5-yl)amino)-5-cyclopropylnicotinic acid]: the IC50 is 10 to 100 nM.
Consider `O=C(O)c1cc(C2CC2)cnc1Nc1ccc2c(c1)OCC(=O)N2c1ccccc1` [Example 399, 5-cyclopropyl-2-((3-oxo-4-phenyl-3,4-dihydro-2H-benzo[b][1,4]oxazin-7-yl)amino)nicotinic acid], for which the IC50 lay within 100 to 1000 nM.
As to `O=C(O)c1cc(C2CC2)cnc1Nc1cccc2c1ccc(=O)n2-c1ccccc1` [Example 401, 5-cyclopropyl-2-((2-oxo-1-phenyl-1,2-dihydroquinolin-5-yl)amino)nicotinic acid], the IC50 lay in the range of 100 to 1000 nM.
Turning to `O=C(O)c1cc(C2CC2)cnc1Nc1ccc2c(c1)Cc1ccccc1-2` [Example 405, 2-((9H-fluoren-2-yl)amino)-5-cyclopropylnicotinic acid], the IC50 fell in the range of 10 to 100 nM.
To `Cn1ccc2cc(Nc3ncc(C4CC4)cc3C(=O)O)cc(C3CC3)c21` [Example 409, 5-cyclopropyl-2-((7-cyclopropyl-1-methyl-1H-indol-5-yl)amino)nicotinic acid] belongs 10 to 100 nM; to `CCc1cc(Nc2ncc(C3CC3)cc2C(=O)O)cc2ccn(CC)c12` [Example 413, 5-cyclopropyl-2-((1,7-diethyl-1H-indol-5-yl)amino)nicotinic acid], 10 to 100 nM; to `O=C(O)c1cc(C2CC2)cnc1Nc1ccc2c(ccn2CC2CCCCO2)c1` (centres unmarked) [Example 414, 5-cyclopropyl-2-((1-((tetrahydro-2H-pyran-2-yl)methyl)-1H-indol-5-yl)amino)nicotinic acid], 10 to 100 nM.
The figure for `CCCn1ccc2c(Nc3ncc(C4CC4)cc3C(=O)O)cccc21` [Example 419, 5-cyclopropyl-2-((1-propyl-1H-indol-4-yl)amino)nicotinic acid] is 10 to 100 nM.
